Results reported in article PMC9267128, “New 2-[(4-Amino-6-N-substituted-1,3,5-triazin-2-yl)methylthio]-N-(imidazolidin-2-ylidene)-4-chloro-5-methylbenzenesulfonamide Derivatives, Design, Synthesis and Anticancer Evaluation” (International Journal of Molecular Sciences, 2022).

Tests used:
HeLa (cervical cancer) = assay: MTT cell viability assay, HeLa; assay type: cell-based, human; conditions: Homo sapiens, HeLa; MTT assay, 72 h of incubation
Description: (§1) Analysis was performed using an MTT assay after 72 h of incubation.
(§2) All chemicals, if not stated otherwise, were obtained from Sigma–Aldrich (St. Louis, MO, USA). The HCT-116 cell line was purchased from ATCC (ATCC-No: CCL-247), while the MCF-7, HeLa and HaCaT cell lines were purchased from Cell Lines Services (Eppelheim, Germany). Cells were cultured in Dulbecco’s modified Eagle’s medium (DMEM) supplemented with 10% fetal bovine serum, 2 mM glutamine, 100 units/mL penicillin and 100 µg/mL streptomycin. Cultures were maintained in a humidified atmosphere with 5% carbon dioxide at 37 °C in an incubator (Heraceus, HeraCell).
(§3) Cell viability was examined using the MTT [3-(4,5-dimethylthiazol-2-yl)-2,5-diphenyltetrazolium bromide] assay. Cells were seeded in 96-well plates at a density of 3 × 10^3 cells/well and treated for 72 h with the tested compounds in the concentration range of 1–100 µM. Then, MTT (0.5 mg/mL) was added to the medium and cells were further incubated for 2 h at 37 °C. In the next stage, cells were lysed with DMSO and the absorbance of the formazan solution was measured at 550 nm with a plate reader (1420 multilabel counter, Victor, Jügesheim, Germany). The experiment was performed in triplicate. Values are expressed as the mean ± SD of at least three independent experiments.

MCF-7 (breast cancer) = assay: MTT cell viability assay, MCF-7; assay type: cell-based, human; conditions: Homo sapiens, MCF7, 72 h, MTT assay, 72 h of incubation
Description: (§4) Compounds 20–162 were evaluated in vitro for their effects on the viability of three cancer cell lines: HCT-116 (colon cancer), MCF-7 (breast cancer) and HeLa (cervical cancer), as well as the non-cancerous keratinocyte cell line (HaCaT). […] Analysis was performed using an MTT assay after 72 h of incubation.
as §2
as §3, with “experiments. Cisplatin was used as a positive control.” for “experiments.”

HCT-116 (colon cancer) = assay: MTT cell viability assay, HCT-116; assay type: cell-based, human; conditions: Homo sapiens, HCT-116, 72 h, MTT assay, 72 h of incubation
Description: as §1, §2, §3

[1] = system: HaCaT (human keratinocyte cell line); assay: MTT cell viability assay, non-cancerous HaCaT; assay type: cell-based; conditions: Homo sapiens, HaCaT, 72 h, 72 h of incubation, non-cancerous keratinocytes
Description: as §4, §2
as §3, with “experiments. Cisplatin was used as a positive control.” for “experiments.”

Row | Structure (SMILES) | IC50 (HeLa (cervical cancer)) | IC50 (MCF-7 (breast cancer)) | IC50 (HCT-116 (colon cancer)) | IC50 [1]
1 | Cc1cc(S(=O)(=O)N=C2NCCN2)c(SCc2nc(N)nc(N(C)C)n2)cc1Cl [Compound 20] | 115 ± 7 µM | 220 ± 6 µM | 110 ± 2 µM | –
2 | Cc1cc(S(=O)(=O)N=C2NCCN2)c(SCc2nc(N)nc(N3CCOCC3)n2)cc1Cl [Compound 21] | 510 ± 5 µM | 190 ± 2 µM | 350 ± 7 µM | –
3 | CC1=NN(c2nc(N)nc(CSc3cc(Cl)c(C)cc3S(=O)(=O)N=C3NCCN3)n2)C(C)(C)C1 [Compound 22] | 110 ± 4 µM | 130 ± 4 µM | 140 ± 3 µM | –
4 | Cc1cc(S(=O)(=O)N=C2NCCN2)c(SCc2nc(N)nc(N3CCc4ccccc43)n2)cc1Cl [Compound 23] | 150 ± 2 µM | 130 ± 3 µM | 142 ± 4 µM | –
5 | Cc1cc(S(=O)(=O)N=C2NCCN2)c(SCc2nc(N)nc(N3CCCc4ccccc43)n2)cc1Cl [Compound 24] | 22 ± 0.2 µM | 27 ± 0.3 µM | 20 ± 0.4 µM | 41 ± 1 µM
6 | Cc1cc(S(=O)(=O)N=C2NCCN2)c(SCc2nc(N)nc(Nc3ccccc3)n2)cc1Cl [Compound 25] | 46 ± 2 µM | 46 ± 2 µM | 45 ± 2 µM | 54 ± 2 µM
7 | Cc1cc(S(=O)(=O)N=C2NCCN2)c(SCc2nc(N)nc(Nc3ccc(F)cc3)n2)cc1Cl [Compound 26] | 34 ± 1 µM | 33 ± 1 µM | 33 ± 2 µM | 45 ± 2 µM
8 | Cc1cc(S(=O)(=O)N=C2NCCN2)c(SCc2nc(N)nc(NCc3ccccc3)n2)cc1Cl [Compound 27] | 74 ± 2 µM | 44 ± 1 µM | 39 ± 2 µM | 75 ± 3 µM
9 | Cc1cc(S(=O)(=O)N=C2NCCN2)c(SCc2nc(N)nc(N(C)c3ccccc3)n2)cc1Cl [Compound 28] | 80 ± 1 µM | 45 ± 0.5 µM | 58 ± 0.6 µM | –
10 | Cc1cc(S(=O)(=O)N=C2NCCN2)c(SCc2nc(N)nc(N(C)c3ccc(Cl)cc3)n2)cc1Cl [Compound 29] | 32 ± 0.3 µM | 24 ± 0.2 µM | 25 ± 0.5 µM | 43 ± 2 µM
11 | Cc1cc(S(=O)(=O)N=C2NCCN2)c(SCc2nc(N)nc(N3CCN(c4ccccc4)CC3)n2)cc1Cl [Compound 31] | 16 ± 0.1 µM | – | – | 26 ± 1 µM
12 | Cc1cc(S(=O)(=O)N=C2NCCN2)c(SCc2nc(N)nc(N3CCN(c4ccc(F)cc4)CC3)n2)cc1Cl [Compound 32] | 14 ± 0.5 µM | 16 ± 0.5 µM | 14 ± 0.5 µM | 28 ± 1 µM
13 | Cc1cc(S(=O)(=O)N=C2NCCN2)c(SCc2nc(N)nc(N3CCN(c4ccccc4F)CC3)n2)cc1Cl [Compound 33] | 25 ± 1 µM | 26 ± 1 µM | 19 ± 0.5 µM | 41 ± 2 µM
14 | Cc1cc(S(=O)(=O)N=C2NCCN2)c(SCc2nc(N)nc(N3CCN(c4ccc(C(F)(F)F)cc4)CC3)n2)cc1Cl [Compound 34] | 24 ± 2 µM | 12 ± 0.5 µM | 18 ± 1 µM | 41 ± 1 µM
15 | Cc1cc(S(=O)(=O)N=C2NCCN2)c(SCc2nc(N)nc(N3CCN(c4cccc(C(F)(F)F)c4)CC3)n2)cc1Cl [Compound 35] | 16 ± 1 µM | 16 ± 1 µM | 14 ± 0.7 µM | 32 ± 2 µM
16 | Cc1cc(S(=O)(=O)N=C2NCCN2)c(SCc2nc(N)nc(N3CCN(c4ccc(Cl)cc4)CC3)n2)cc1Cl [Compound 36] | 12 ± 0.1 µM | 13 ± 0.1 µM | 12 ± 0.1 µM | 28 ± 1 µM

Row | Structure (SMILES) | IC50 (HeLa (cervical cancer)) | IC50 (MCF-7 (breast cancer)) | IC50 (HCT-116 (colon cancer)) | IC50 [1]
17 | Cc1cc(S(=O)(=O)N=C2NCCN2)c(SCc2nc(N)nc(N3CCN(c4cccc(Cl)c4)CC3)n2)cc1Cl [Compound 37] | 24 ± 1 µM | 19 ± 1 µM | 18 ± 0.5 µM | 37 ± 2 µM
18 | Cc1cc(S(=O)(=O)N=C2NCCN2)c(SCc2nc(N)nc(N3CCN(c4ccc(Cl)c(Cl)c4)CC3)n2)cc1Cl [Compound 38] | 19 ± 1 µM | 28 ± 1 µM | 15 ± 0.5 µM | 35 ± 1 µM
19 | Cc1cc(S(=O)(=O)N=C2NCCN2)c(SCc2nc(N)nc(N3CCN(c4ccc(F)c(Cl)c4)CC3)n2)cc1Cl [Compound 39] | 18 ± 1 µM | 17 ± 1 µM | 15 ± 1 µM | 37 ± 2 µM
20 | COc1ccc(N2CCN(c3nc(N)nc(CSc4cc(Cl)c(C)cc4S(=O)(=O)N=C4NCCN4)n3)CC2)cc1 [Compound 40] | 23 ± 1 µM | 28 ± 2 µM | 21 ± 0.5 µM | 45 ± 3 µM
21 | COc1ccccc1N1CCN(c2nc(N)nc(CSc3cc(Cl)c(C)cc3S(=O)(=O)N=C3NCCN3)n2)CC1 [Compound 41] | 39 ± 2 µM | 46 ± 1 µM | 21 ± 1 µM | 51 ± 3 µM
22 | Cc1cc(S(=O)(=O)N=C2NCCN2)c(SCc2nc(N)nc(N3CCN(Cc4ccccc4)CC3)n2)cc1Cl [Compound 42] | 30 ± 1.5 µM | 31 ± 2 µM | 31 ± 1 µM | 61 ± 4 µM
23 | Cc1cc(S(=O)(=O)N=C2NCCN2)c(SCc2nc(N)nc(N3CCC(Cc4ccccc4)CC3)n2)cc1Cl [Compound 43] | 19 ± 0.5 µM | 22 ± 0.5 µM | 17 ± 1 µM | 43 ± 2 µM
24 | Cc1cc(S(=O)(=O)N=C2NCCN2)c(SCc2nc(N)nc(N3CC=C(c4ccc(F)cc4)CC3)n2)cc1Cl [Compound 44] | 14 ± 0.5 µM | 16 ± 0.5 µM | 14 ± 0.5 µM | 28 ± 1 µM
25 | Cc1cc(S(=O)(=O)N=C2NCCN2Cc2ccccc2)c(SCc2nc(N)nc(N(C)C)n2)cc1Cl [Compound 45] | 34 ± 1 µM | 22 ± 0.2 µM | 19 ± 0.4 µM | 43 ± 2 µM
26 | Cc1cc(S(=O)(=O)N=C2NCCN2Cc2ccccc2)c(SCc2nc(N)nc(N3CCOCC3)n2)cc1Cl [Compound 46] | 37 ± 0.4 µM | 23 ± 0.7 µM | 21 ± 0.2 µM | –
27 | CC1=NN(c2nc(N)nc(CSc3cc(Cl)c(C)cc3S(=O)(=O)N=C3NCCN3Cc3ccccc3)n2)C(C)(C)C1 [Compound 47] | 34 ± 0.3 µM | 20 ± 0.4 µM | 19 ± 0.2 µM | 45 ± 2 µM
28 | Cc1cc(S(=O)(=O)N=C2NCCN2Cc2ccccc2)c(SCc2nc(N)nc(N3CCCc4ccccc43)n2)cc1Cl [Compound 49] | 24 ± 0.5 µM | 17 ± 0.3 µM | 14 ± 0.1 µM | 38 ± 1 µM
29 | Cc1cc(S(=O)(=O)N=C2NCCN2Cc2ccccc2)c(SCc2nc(N)nc(Nc3ccccc3)n2)cc1Cl [Compound 50] | 35 ± 2 µM | 43 ± 1 µM | 18 ± 0.2 µM | 51 ± 2 µM
30 | Cc1cc(S(=O)(=O)N=C2NCCN2Cc2cccc3ccccc23)c(SCc2nc(N)nc(N3CCN(c4ccc(Cl)cc4)CC3)n2)cc1Cl [Compound 79] | 88 ± 3 µM | 98 ± 5 µM | 94 ± 2 µM | –
31 | Cc1cc(S(=O)(=O)N=C2NCCN2Cc2cccc3ccccc23)c(SCc2nc(N)nc(N3CCN(c4ccc(Cl)c(Cl)c4)CC3)n2)cc1Cl [Compound 80] | 98 ± 5 µM | 89 ± 4 µM | 79 ± 2 µM | –
